The series relates to Rattus norvegicus. Put plainly: Maximal blood concentration after oral administration of a 30 umol/kg dose of compound. The format is ADME, organism-based. Details: dose 30 umol/kg, route oral. The conditions noted are these: in vivo.

`CN1C(C(=O)Nc2ccccn2)=C(O)c2ccccc2S1(=O)=O` [PIROXICAM] gave a Cmax of 47.8 nmol/g.
As to `CN1C(C(=O)Nc2cccc[n+]2C)=C(O)c2ccccc2S1(=O)=O.[I-]`, the Cmax is given as 5.5 nmol/g.

Values taken from ChEMBL document CHEMBL1132541, “New quaternary ammonium oxicam derivatives targeted toward cartilage: synthesis, pharmacokinetic studies, and antiinflammatory potency” (J Med Chem, 1999).
